Data published in patent publication US9447055B1, “α-amino esters of hydroxypropylthiazolidine carboxamide derivative and salt form, crystal polymorph thereof” (Merck Serono S.A., priority 2016, dated 2016).
≈ marks a conversion by molar mass, not a printed value. Entries after “also recorded” stand apart in the source; their conditions may differ.

Assays:
[1] = stability in HBSS transport buffer; type: in vitro ADME; details: 37° C., 60 and 120 minutes
Protocol: Stability of both compound I and compound II was assessed during the test. These compounds were dissolved in HBSS buffer (1% DMSO final concentration) at the concentrations of 1.5, 3 and 6 μM. An aliquot of each solution was sampled at time zero (t=0) to assess the starting concentrations of the compounds. The solutions were incubated at 37° C. for the duration of the transport experiment. An aliquot of each solution was sampled at the end of experiment (t=120) to assess the final concentrations of compound I and compound II. Samples were analyzed by LC-MS.

[2] = system: other prostaglandin receptor subtypes; details: FP over other subtypes
Protocol: (§1) Selectivity of compound II was tested against all eight prostaglandin receptor subtypes.

[3] = biological target: prostaglandin E receptor 2 (EP2) (Homo sapiens (Human), UniProt P43116); details: FP over EP2
Protocol: as §1

[4] = solubility in water and simulated intestinal media; type: physicochemical
[5] = biological target: human FP (Homo sapiens (Human), UniProt P43088); test: IP3 synthesis in FP-transfected HEK293-EBNA cells; type: cell-based
Protocol: The functional characterization of compound II on human FP was performed in transfected HEK293-EBNA cells.

[6] = system: panel of 50 receptors, channels and enzymes binding sites; details: 1 μM
[7] = system: Caco-2 cell monolayer; test: bidirectional permeability across Caco-2 cell monolayers; type: in vitro ADME, human; details: for efflux: bi-directional
Protocol: (§2) Compound I was dissolved in HBSS buffer (1% DMSO final concentration) at the concentrations of 1.5, 3 and 6 μM. Each concentration/sampling time was run in duplicate well. The test was performed in a gradient pH: the apical compartment (mucosal) was at pH 6.5, the basolateral compartment (serosal) was at pH 7.4.
(§3) Apical to basolateral (A→B, mucosal to serosal) transport: 200 μL of each concentration of compound I was added to the apical compartment and 400 μL of HBSS was added to the basolateral compartment. The plates were incubated at 37° C. An aliquot of the basolateral compartment was sampled after 60 and 120 min (t=60 and t=120). An aliquot of the apical compartment was sampled at the starting time (t=0) and after 120 min. (t=120).
(§4) Basolateral to apical (B→A, serosal to mucosal) transport: 400 μL of each concentration of compound I was added to the basolateral compartment and 200 μL of HBSS was added to the apical compartment. The plates were incubated at 37° C. An aliquot of the apical compartment was sampled after 60 and 120 min (t=60 and t=120). An aliquot of the basolateral compartment was sampled at the starting time (t=0) and after 120 min. (t=120). All samples were analyzed by LC/MS monitoring both compound I and the appearance of compound II.
as §2, with “II” for “I”
as §3, with “II” for “I”
as §4, with “of compound II was added” for “of compound I was added”, “LC/MS monitoring compound II.” for “LC/MS monitoring both compound I and the appearance of compound II.”

[8] = system: spontaneous uterine contractions; test: spontaneous uterine activity in late-term anaesthetized pregnant rat; type: in vivo; details: late-term pregnant rats; for reduction of spontaneous uterine contractions: i.v. or oral, maximal effect at 30 mg/kg i.v. and 60 mg/kg oral; for intravenous activity compared with atosiban: i.v.
Excerpt: The tocolytic effects of compound I and compound II were investigated in a model of spontaneous uterine activity in late-term (19-21 days of gestation) anaesthetized pregnant rat (Kawarabayashi et al. Am. J. Obstet. Gynecol. 175:1348-1355 (1996) and Shinkai et al. J. Pharm. Pharmacol. 52:1417-1423 (2000)). Briefly, late-term pregnant female rats were anaesthetized with urethane. One pregnant uterine horn was exposed and a polyethylene catheter bearing on the tip a latex balloon filled with saline was inserted into the lumen. The catheter was connected to an amplifying/recording system via a pressure-transducer. […] For the i.v. administration the uterine contractile activity was quantified by calculating the AUC during the 10 min injection period. The percent variation of the AUC values relative to the spontaneous uterine response observed after each compound administration was calculated in comparison to the value recorded before the first dose-administration (basal value). The effect of compound I or compound II was evaluated by comparing pre- and post-treatment luminal uterine pressure values. For the oral administration the same computation procedure was applied at different time points after treatment. Statistical differences between treatment groups at each time-point were determined by using one-way ANOVA followed by Tukey test. Both compounds intravenously or orally administered were able to markedly reduce spontaneous uterine contractions by around 40-50% (maximal effect obtained at 30 mg/kg by i.v. route and 60 mg/kg by oral route).

[9] = biological target: human FP-R (Homo sapiens (Human), UniProt P43088); test: competitive radioligand binding, recombinant FP receptor expressed in HEK293-EBNA cells
Protocol: The potency of inhibition of compound I and compound II on prostaglandin F2α receptor was assessed by analyzing the affinity of these compounds for recombinant FP receptor expressed in HEK293-EBNA cells.

[10] = in vivo conversion of compound I to compound II; details: following gastrointestinal tract administration
Protocol: The invention is based on the discovery that compound I ((3S)-3-({[(2S)-3-(biphenyl-4-ylsulfonyl)-1,3-thiazolidin-2-yl]carbonyl}-amino)-3-(4-fluorophenyl)propyl L-valinate, represented by formula I, below) and salts thereof are converted in vivo to 3-([1,1′-biphenyl]-4-ylsulfonyl)-N-[1-(4-fluorophenyl)-3-hydroxypropyl]-1,3-thiazolidine-2-carboxamide (represented by formula II, below).
Compound II is a competitive and reversible prostaglandin F2α receptor antagonist (human FP2α receptor Ki=6 nM) that is under development for the management of pre-term labor by inhibition of premature uterine contractions.

[11] = biological target: PepT1 transporter (Homo sapiens (Human), UniProt P46059); test: mucosal-to-serosal Caco-2 transport after Gly-Sar pre-treatment; type: in vitro ADME; details: 10 mM Gly-Sar pre-treatment; for compound I passage to receiving compartment after Gly-Sar pre-treatment: A→B
Protocol: The differentiated cells were pre-treated for 30 min. with 10 mM of Gly-Sar in order to block the active transporter PepT1.
as §2
Apical to basolateral (A→B, mucosal to serosal) transport: 200 μL of each concentration of compound I was added to the apical compartment and 400 μL of HBSS was added to the basolateral compartment. The plates were incubated at 37° C. An aliquot of the basolateral compartment was sampled after 60 and 120 min (t=60 and t=120). An aliquot of the apical compartment was sampled at the starting time (t=0) and after 120 min. (t=120). All samples were analyzed by LC/MS monitoring both compound I and the appearance of compound II.

[12] = non-specific binding to cell-free transwells; type: in vitro ADME
Protocol: Non-specific binding and recovery was assessed across cell-free transwells.
Compound I was tested at 1.5, 3 and 6 μM in duplicate cell-free transwells. The test was performed in a pH gradient between the apical and the basolateral compartment. […] The following sampling times were performed: 60 and 120 min for the basolateral compartment (receiver) and 120 min for the apical compartment (donor). Samples obtained were analyzed by LC-MS, both compound I and compound II were monitored in order to assess percent of recovery.

[13] = aqueous solubility of compound I salts; type: physicochemical; details: water
[14] = moisture sorption/desorption and relative humidity stability of salts; type: physicochemical; details: for hygroscopicity: moisture balance data, hydrochloride
Protocol: Moisture sorption/desorption (MB) data were collected on a VTI SGA-100 Vapor Sorption Analyzer. Sorption and desorption data were collected over a range of 5% to 95% relative humidity (RH) at 10% RH intervals under a nitrogen purge. Samples were not dried prior to analysis. Equilibrium criteria used for analysis were less than 0.0100% weight change in 5 minutes, with a maximum equilibration time of 3 hours if the weight criterion was not met. Data were not corrected for the initial moisture content of the samples. NaCl and PVP were used as calibration standards.

[15] = FaSSIF pH 6.5, read-out: Solubility in FaSSIF
[16] = FeSSIF pH 5.0, read-out: Solubility in FeSSIF
[17] = water, read-out: Solubility in water

human FP-R, sequence (P43088 whole entry): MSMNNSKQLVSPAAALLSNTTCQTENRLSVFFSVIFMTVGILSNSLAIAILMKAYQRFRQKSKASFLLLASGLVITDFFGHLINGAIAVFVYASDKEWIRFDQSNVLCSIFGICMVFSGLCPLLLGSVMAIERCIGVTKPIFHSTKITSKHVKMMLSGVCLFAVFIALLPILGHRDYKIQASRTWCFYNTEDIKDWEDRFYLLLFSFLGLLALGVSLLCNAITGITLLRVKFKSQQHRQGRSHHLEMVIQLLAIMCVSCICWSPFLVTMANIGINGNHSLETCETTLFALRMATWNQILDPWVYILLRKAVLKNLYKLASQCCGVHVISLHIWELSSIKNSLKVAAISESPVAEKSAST
human FP, sequence (P43088 whole entry): as above
prostaglandin E receptor 2 (EP2), sequence (P43116 whole entry): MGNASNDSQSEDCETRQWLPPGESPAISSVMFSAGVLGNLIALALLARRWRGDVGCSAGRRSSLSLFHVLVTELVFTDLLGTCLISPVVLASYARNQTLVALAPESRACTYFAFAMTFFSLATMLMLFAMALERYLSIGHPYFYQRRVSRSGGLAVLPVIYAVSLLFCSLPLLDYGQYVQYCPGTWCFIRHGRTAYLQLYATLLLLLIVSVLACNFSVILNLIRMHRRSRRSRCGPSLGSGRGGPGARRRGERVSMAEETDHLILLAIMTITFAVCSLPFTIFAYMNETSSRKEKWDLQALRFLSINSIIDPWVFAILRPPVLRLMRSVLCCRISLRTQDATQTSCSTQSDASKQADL

Structure (SMILES): O=C(N[C@@H](CCO)c1ccc(F)cc1)[C@@H]1SCCN1S(=O)(=O)c1ccc(-c2ccccc2)cc1 (stereo in doubt) [Compound II, 3-([1,1′-biphenyl]-4-ylsulfonyl)-N-[1-(4-fluorophenyl)-3-hydroxypropyl]-1,3-thiazolidine-2-carboxamide]
- stability in HBSS buffer [1]: stable
- Selectivity against other prostaglandin receptors [2]: higher than 100 fold
- Selectivity versus prostaglandin E receptor 2 (EP2) [3]: approximately 10 fold
- solubility [4, 15]: 0.4 µg/mL (≈ 0.799 µM)
- solubility [4, 16]: 10 µg/mL (≈ 20 µM)
- solubility [4, 17]: 0.4 µg/mL (≈ 0.799 µM)
- IC50 ([5]; FP/HEK293-EBNA cells, read-out: inhibition of synthesis of IP3, IC50): 60 nM
- agonist activity: synthesis of IP3 when added alone ([5]; tested up to 10 μM, added alone): did not induce any synthesis of IP3
- Selectivity in panel of 50 receptors, channels and enzymes binding sites [6]: high selectivity for FP
- passive passage through the Caco-2 monolayer [7]: good passive passage
- passage apical to basolateral ([7]; A→B): good percentage of passage
- permeability basolateral to apical ([7]; B→A): low rate of permeability
- efflux [7]: No efflux was detected
- efflux ([7]; listed as compound II): Evidence was not found that compound II might be a substrate for an efflux transporter
- reduction of spontaneous uterine contractions [8]: 40-50%
- intravenous activity compared with atosiban [8]: comparable or slightly higher than that of the tocolytic drug atosiban
- Ki [9]: 6 nM

Structure (SMILES): CC(C)[C@H](N)C(=O)OCC[C@H](NC(=O)[C@@H]1SCCN1S(=O)(=O)c1ccc(-c2ccccc2)cc1)c1ccc(F)cc1 [Compound I, (3S)-3-({[(2S)-3-(biphenyl-4-ylsulfonyl)-1,3-thiazolidin-2-yl]carbonyl}-amino)-3-(4-fluorophenyl)propyl L-valinate]
- stability in HBSS buffer [1]: stable
- solubility [4, 15]: 70 µg/mL (≈ 117 µM)
- solubility [4, 16]: 90 µg/mL (≈ 150 µM)
- solubility [4, 17]: 380 µg/mL (≈ 634 µM)
- compound I in basolateral (receiving) compartment, apical to basolateral ([7]; A→B, 60 and 120 minutes, 1.5, 3 and 6 μM): not detected
- compound I in apical (receiving) compartment, basolateral to apical ([7]; B→A, 60 and 120 minutes): not detected
- recovery of compound I in apical compartment at end of apical to basolateral experiment ([7]; apical compartment, 120 min): primarily recovered in the form of the de-esterified variant, compound II; also recorded: low recovery
- passage through the Caco-2 cell monolayer ([7]; bi-directional permeability test): did not pass through the cell monolayer
- conversion to compound II [10]: rapidly converted to compound II
- PepT1 mediation of transport [11]: likely not mediated by PepT1
- compound I passage to receiving compartment after Gly-Sar pre-treatment [11]: not detected
- compound I passage to receiving compartment after Gly-Sar pre-treatment ([11]; listed as compound I): no passage
- reduction of spontaneous uterine contractions [8]: 40-50%
- intravenous activity compared with atosiban [8]: comparable or slightly higher than that of the tocolytic drug atosiban
- Ki [9]: 1 nM
- non-specific binding ([12]; cell-free transwells, 1.5, 3 and 6 μM): excluded
- detection in basolateral compartment of cell-free transwell ([12]; cell-free transwells, any dose tested): not detected

Structure (SMILES): CC(C)[C@H](N)C(=O)OCC[C@H](NC(=O)[C@@H]1SCCN1S(=O)(=O)c1ccc(-c2ccccc2)cc1)c1ccc(F)cc1.Cl [Compound III, (3S)-3-({[(2S)-3-(biphenyl-4-ylsulfonyl)-1,3-thiazolidin-2-yl]carbonyl}-amino)-3-(4-fluorophenyl)propyl L-valinate hydrochloride]
- solubility [13]: < 1000 µg/mL
- deliquescence ([14]; 2 days at approximately 95% RH): did not deliquesce
- weight loss upon desorption ([14]; desorption after sorption to 95% RH): approximately 0.7%
- weight gain on sorption ([14]; from 5 to 95% relative humidity): Approximately 0.9%
- hygroscopicity [14]: low hygroscopicity
- hygroscopicity ([14]; listed as chloride salt): non-hygroscopic
- hygroscopicity ([14]; listed as hydrochloride salt): low hygroscopicity; also recorded: non-hygroscopic
